Experimental data taken from patent publication US9751862B2, “Pesticidally active substituted pyridyl carboxamides” (Syngenta Participations AG, priority 2014, dated 2017).
Like-named read-outs stand apart in the source and are kept apart here.

Key:
Format in all cases: in vivo
[1] = system: Myzus persicae (Green Peach Aphid); experiment: Activity against Myzus persicae (mixed population, feeding/residual contact activity, preventive), sunflower leaf discs; conditions: foliar, 144 h, read-out: activity (mortality)
Protocol: Sunflower leaf discs were placed on agar in a 24-well microtiter plate and sprayed with test solutions. After drying, the leaf discs were infested with an aphid population of mixed ages. After an incubation period of 6 days, samples were checked for mortality and special effects (e.g. phytotoxicity).

[2] = system: Myzus persicae (Green Peach Aphid); experiment: Activity against Myzus persicae (mixed population, systemic/feeding activity, curative), pea seedlings; conditions: 144 h, pea seedling roots in test solution, 6 days after introduction
Source text: Example B2: Activity Against Myzus persicae (Green Peach Aphid) (Mixed Population, Systemic/Feeding Activity, Curative)
Pea seedlings, infested with an aphid population of mixed ages, were placed with the roots directly in the test solutions. 6 days after introduction, samples were checked for mortality and special effects on the plant.

[3] = system: Bemisia tabaci; experiment: Activity against Bemisia tabaci (adults on cotton, contact, preventative); conditions: foliar, 168 h, sprayed cotton leaf discs, adult white flies, 7 DAT
Protocol: Example B3: Activity Against Bemisia tabaci, (Adults on Cotton, Contact, Preventative)
Cotton leaf discs are placed on agar in a 24-well microtiter plate and sprayed with test solutions. After drying, the leaf discs are infested with adult white flies. After an incubation period of 7 DAT, samples are checked for mortality and special effects (e.g. phytotoxicity).

[4] = system: Frankliniella occidentalis (Western Flower Thrips); experiment: Activity against Frankliniella occidentalis (mixed population, contact/feeding), bean plants; conditions: 200 ppm; sprayed bean plants; 14 days after infestation
Protocol: Example B4: Activity Against Frankliniella occidentalis (Western Flower Thrips) (Mixed Population, Contact/Feeding)
Bean plants were treated with diluted test solutions in a spray chamber. After drying, plants were infested with a thrips population of mixed ages. 14 days after the infestation, samples were checked for damage reduction compare to the non treated samples.

[5] = 200 ppm, sprayed sunflower leaf discs, 6 days incubation

Q: For `Cc1cc(C(C)(C)C#N)cnc1-n1ncc(C(=O)N(C)c2cccnc2)c1C` [Compound 1.004, 1-[5-(1-cyano-1-methyl-ethyl)-3-methyl-2-pyridyl]-N,5-dimethyl-N-(3-pyridyl)pyrazole-4-carboxamide], which mortality at 200 ppm [1, 5] is on record?
A: ≥ 80%

Q: What about the mortality at 24 ppm [2] of the same molecule?
A: > 80%

Q: Which mortality at 200 ppm [1, 5] does the source give for `Cc1cc(C2(C#N)CC2)cnc1-n1ncc(C(=O)N(C)c2cccnc2)c1C` [Compound 1.002, 1-[5-(1-cyanocyclopropyl)-3-methyl-2-pyridyl]-N,5-dimethyl-N-(3-pyridyl)pyrazole-4-carboxamide] here?
A: ≥ 80%

Q: And the mortality at 24 ppm [2]?
A: > 80%

Q: For `CCOC(=O)C(CC)c1cnc(-n2ncc(C(=O)N(C)c3cccnc3)c2C)c(C)c1` (stereo not shown) [Compound 1.009], which mortality at 200 ppm [1, 5] is on record?
A: ≥ 80%

Q: Which mortality at 200 ppm [1, 5] does the source give for `Cc1cc(/C(C#N)=N/O)cnc1-n1ncc(C(=O)N(C)c2cccnc2)c1C` [Compound 1.007, 1-[5-[(Z)-C-cyano-N-hydroxy-carbonimidoyl]-3-methyl-2-pyridyl]-N,5-dimethyl-N-(3-pyridyl)pyrazole-4-carboxamide] here?
A: ≥ 80%

Q: What about the mortality at 24 ppm [2] of the same molecule?
A: > 80%

Q: How did the mortality at 200 ppm [1, 5] turn out when `Cc1cc(CC#N)cnc1-n1ncc(C(=O)N(C)c2cccnc2)c1C` [Compound 1.001, 1-[5-(cyanomethyl)-3-methyl-2-pyridyl]-N,5-dimethyl-N-(3-pyridyl)pyrazole-4-carboxamide] was run?
A: ≥ 80%

Q: And the mortality at 24 ppm [2]?
A: > 80%

Q: And the mortality at 200 ppm [3]?
A: > 80%

Q: How did the mortality at 200 ppm [1] turn out when `CCO/N=C(\C#N)c1cnc(-n2ncc(C(=O)N(C)c3cccnc3)c2C)c(C)c1` [Compound 1.008, (3E/Z)-N-ethoxy-5-methyl-6-[5-methyl-4-[methyl(3-pyridyl)carbamoyl]pyrazol-1-yl]pyridine-3-carboximidoyl cyanide] was run?
A: ≥ 80%

Q: With `Cc1cc(C(C)C#N)cnc1-n1ncc(C(=O)N(C)c2cccnc2)c1C` (stereo not shown) [Compound 1.003, 1-[5-(1-cyanoethyl)-3-methyl-2-pyridyl]-N,5-dimethyl-N-(3-pyridyl)pyrazole-4-carboxamide] as the molecule, how does the mortality at 200 ppm [1, 5] read?
A: ≥ 80%

Q: What about the “activity (damage reduction compared to non treated samples)” value [4] of the same molecule?
A: over 80%
